From PMC5769417, “Single- and Multiple-Dose Trials to Determine the Pharmacokinetics, Safety, Tolerability, and Sex Effect of Oral Ginsenoside Compound K in Healthy Chinese Volunteers” (Frontiers in Pharmacology, 2018)
Values joined by “and” are separate entries in the source; they are usually repeats but may differ in a detail not shown here. Equal entries are not always repeated.

Assays:
CYP3A4 = system: CYP3A4; set-up: method as in Xiao et al., 2016; details: human liver microsomes, human recombinant CYPs; ref Xiao et al., 2016; cited from earlier work
[1] = Multiple-dose trial, plasma pharmacokinetics; assay type: in vivo, human; details: for Accumulation index: 1/(1 − e^−Kτ)
Description: Multiple-dose pharmacokinetics: […] Multiple-dose pharmacokinetics: […] All samples were preserved at −70°C and analyzed with a LC-MS/MS (API 4000 LC-MS/MS, ABI Company, Foster City, CA, USA) at the Institute of Clinical Pharmacology, Central South University (Changsha, China). […] An aqueous solution of a stable internal standard (IS for CK: digoxin, Shijiaoke Biological Technology Co. Ltd., Beijing, China; IS for PPD: coumarin, Sigma-Aldrich, St. Louis, USA) and 1 M phosphate buffer were added to 0.5 ml of thawed sample, and analytical standards and quality control (QC) samples were prepared in the same matrix. All samples were treated with 2 ml of methyl tert-butyl ether (MTBE, CNW technologies GmbH, Duesseldorf, Germany) to precipitate the bulk of plasma proteins. After mechanical shock by mixing for 10 min and a subsequent centrifugation (4,000 rpm, 4°C, 10 min), 1.4 ml of the supernatant was transferred and blow-dried with nitrogen in a water bath at 40°C. Lastly, the residue was dissolved in 100 μl of mobile phase and then was subjected to a mechanical shock by mixing, and centrifuged. The supernatant was subsequently injected into the column for analysis. […] Accuracy and precision of the assay were determined by evaluating the performance of the assay controls. Over the quantification range, the accuracy of the QC samples varied from 85 to 115% and the intra- and inter-assay imprecision was <15%. […] The area under the curve (AUC) from time zero to the last time point (AUClast) and the AUC extrapolated to infinity (AUCinf) were calculated using the linear trapezoidal rule. The slope (elimination rate constant, K) of the terminal phase of the plasma concentration-time profile was determined, using a weighting factor of 1, by the method of least squares (log-linear regression of at least three data points). The t1/2 was estimated as (ln2)/K. […] The apparent volume of distribution (V/F) was equal to (CL/F)/K. The mean residence time (MRT) was calculated as the area under the first moments curve (AUMC) divided by AUC. The dose-normalized PK parameters e.g., Cmax/D and AUClast/D, were obtained by dividing each PK result by the administered dose. The cumulative excretion rate was calculated as the amount of unchanged drug in the urine over a time interval divided by the dose and was expressed as thousand points (‰). On day 15 in the multiple-dose trial, the PK parameters, such as t1/2, CL/F, and V/F at steady state were calculated using the same method as that used for the single-dose trial. In addition, the Tmax at steady state (Tmax,ss), Cmax at steady state (Cmax,ss), and Cmin,ss were obtained from experimental observation after the steady state during the multiple-dose trial. […] The average steady-state drug concentration (Cavg) is calculated as AUCτ/τ, and the fluctuation ratio was calculated as (Cmax,ss − Cmin,ss)/Cavg. The accumulation index was calculated using dosing interval and elimination rate constant as in the following equation: 1/(1 − e^−Kτ).

[2] = 100 mg oral after breakfast, Day 1
[3] = 100 mg qd oral after breakfast, Day 15
[4] = 200 mg oral after breakfast, Day 1
[5] = 200 mg qd oral after breakfast, Day 15
[6] = 400 mg oral after breakfast, Day 1
[7] = 400 mg qd oral after breakfast, Day 15

## CC(C)=CCC[C@](C)(OC1O[C@H](CO)[C@@H](O)[C@H](O)[C@H]1O)[C@H]1CC[C@]2(C)[C@@H]1[C@H](O)C[C@@H]1[C@@]3(C)CC[C@H](O)C(C)(C)[C@@H]3CC[C@]12C (stereo partly drawn) [CK, 20-O-beta-D-glucopyranosyl-20(S)-protopanaxadiol]
CYP3A4
  inhibition of CYP3A4: moderate inhibitor
  substrate of CYP3A4: substrate
[1]; [2]
  CL/F: 11.6 ± 3.0 l·h ^−1
  V/F: 402 ± 54 L
[1]; [3]
  AUMCτ (zero to 24 h): 60141.5 ± 17696.2 ng·h/mL
  CL/F: 13.4 ± 3.6 l·h ^−1
  Fluctuation: 259.42% and 259.42 ± 48.85%
  V/F: 661 ± 242 L
[1]; 100 mg qd
  Accumulation index: 2.62 and 2.62 ± 0.62
[1]; [4]
  CL/F: 9.6 ± 3.1 l·h ^−1
  V/F: 326 ± 137 L
[1]; [5]
  AUMCτ (zero to 24 h): 179177.1 ± 49122.9 ng·h/mL
  CL/F: 8.6 ± 2.5 l·h ^−1
  Fluctuation: 289.25% and 289.25 ± 35.75%
  V/F: 455 ± 152 L
[1]; 200 mg qd
  Accumulation index: 2.78 and 2.78 ± 0.73
[1]; [6]
  CL/F: 9.4 ± 2.4 l·h ^−1
  V/F: 358 ± 118 L
[1]; [7]
  AUMCτ (zero to 24 h): 306621.5 ± 78711.0 ng·h/mL
  CL/F: 10.3 ± 3.0 l·h ^−1
  Fluctuation: 273.98% and 273.98 ± 37.16%
  V/F: 514 ± 188 L
[1]; 400 mg qd
  Accumulation index: 2.60 and 2.60 ± 0.31
[1]; 100–400 mg qd
  accumulation index range: 2.60–2.78
[1]; Day 1, Female
  AUCinf/D, dose-normalized AUCinf: 116.58 ± 28.07^* h·ng·ml^−1·mg^−1
  AUClast/D, dose-normalized AUClast: 114.23 ± 27.97 ng·h/mL/mg
  Cmax/D, dose-normalized Cmax: 14.49 ± 4.07 ng/mL/mg
[1]; Day 1, Male
  AUCinf/D, dose-normalized AUCinf: 94.22 ± 24.54 ng·h/mL/mg
  AUClast/D, dose-normalized AUClast: 92.27 ± 24.00 ng·h/mL/mg
  Cmax/D, dose-normalized Cmax: 11.00 ± 4.25 ng/mL/mg
[1]; Day 1, all subjects
  AUCinf/D, dose-normalized AUCinf: 105.41 ± 28.29 ng·h/mL/mg
  AUClast/D, dose-normalized AUClast: 103.25 ± 27.94 ng·h/mL/mg
  Cmax/D, dose-normalized Cmax: 12.74 ± 4.46 ng/mL/mg
[1]; Day 1, between sexes
  AUCinf/D, GMR (95% CI): 1.25 (1.03–1.51)
  AUClast/D, GMR (95% CI): 1.25 (1.03–1.51)
  Cmax/D, GMR (95% CI): 1.37 (1.04–1.80)
[1]; Day 1 vs Day 15
  AUCinf/D, GMR (95% CI): 0.75 (0.64–0.87)
  AUClast/D, GMR (95% CI): 0.79 (0.67–0.91)
  Cmax/D, GMR (95% CI): 1.00 (0.82–1.22)
[1]; Day 15, Female
  AUCinf/D, dose-normalized AUCinf: 153.33 ± 30.98 ng·h/mL/mg
  AUClast/D, dose-normalized AUClast: 143.45 ± 29.33 ng·h/mL/mg
  Cmax/D, dose-normalized Cmax: 14.25 ± 3.38 ng/mL/mg
[1]; Day 15, Male
  AUCinf/D, dose-normalized AUCinf: 132.87 ± 52.60 ng·h/mL/mg
  AUClast/D, dose-normalized AUClast: 123.74 ± 47.85 ng·h/mL/mg
  Cmax/D, dose-normalized Cmax: 11.18 ± 5.19 ng/mL/mg
[1]; Day 15, all subjects
  AUCinf/D, dose-normalized AUCinf: 143.10 ± 43.67 ng·h/mL/mg
  AUClast/D, dose-normalized AUClast: 133.59 ± 40.26 ng·h/mL/mg
  Cmax/D, dose-normalized Cmax: 12.71 ± 4.58 ng/mL/mg
[1]; Day 15, between sexes
  AUCinf/D, GMR (95% CI): 1.21 (0.96–1.53)
  AUClast/D, GMR (95% CI): 1.21 (0.96–1.52)
  Cmax/D, GMR (95% CI): 1.36 (1.04–1.76)
[1]; both sexes, human, plasma, 100 mg oral after breakfast, Day 1
  MRT last: 12.2 ± 1.4 h
[1]; both sexes, human, plasma, 100 mg qd oral after breakfast, Day 15, read-out: AUCτ (zero to 24 h)
  AUC: 8000 ± 2320 ng·h/mL
[1]; both sexes, human, plasma, 100 mg qd oral after breakfast, Day 15, steady state, read-out: Cmin
  concentration at 15 day: 333 ± 96.7 ng/mL
[1]; both sexes, human, plasma, 200 mg oral after breakfast, Day 1
  MRT last: 12.6 ± 1.6 h
